The format of this data set is physicochemical. From the text:
U.S. Pat. No. 5,783,203 mentions acetone as a solvent for imidacloprid. […] Using a 6 wt % imidacloprid in acetone would mean applying 1.67 wt % of the solution on the fertilizer based on the combined weight of the fertilizer and the solution to achieve a product with 0.10 wt % imidacloprid. This would be very difficult to achieve a dry product. Fertilizer products with 0.2 wt % and 0.5 wt % imidacloprid would require 3.33 wt % and 8.33 wt % respectively of the imidacloprid solution absorbed onto the fertilizer; concentrations which are not likely feasible in acetone. In addition, acetone is volatile and highly flammable which would make processing very difficult and expensive.

The structures appear in SMILES notation.

This note sets out measurements from patent publication US20080171659A1, “Insecticidally Coated Fertilizer Solids” (priority 2007, published 2008).

Take `O=[N+]([O-])NC1=NCCN1Cc1ccc(Cl)nc1` [imidacloprid]: the solubility result is on record as “less than 7 wt %”.
